Reference: patent US20260374754A1, “N-((ISOQUINOLIN-6-YL)METHYL)-1H-PYRAZOLE-4-CARBOXAMIDE DERIVATIVES AS PLASMA KALLIKREIN INHIBITORS FOR THE TREATMENT OF HEREDITARY ANGIODEMA” (Takeda Pharmaceutical Company Limited, priority 2022, published 2026)

What follows are compounds tested against human activated kallikrein enzyme (Homo sapiens, UniProt P03952) (assay: Inhibition of human activated plasma kallikrein, fluorogenic PFR-AMC substrate, 500 pM enzyme format). Settings: 500 pM activated kallikrein; 300 μM PFR-AMC; 30 min preincubation; 10 min room temperature; pH 7.5; read-out: Primary Dose Response Assay: Average EC50.
Assay type: biochemical
How it was run: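 Using fluorogenic PFR-AMC at 300 μM, cleavage by 500 pM human activated kallikrein ran 10 min at room temperature, read at 460 nm emission (380 nm excitation). Enzyme and compounds were first preincubated 30 min in 20 mM Tris pH 7.5, 150 mM NaCl, 1 mM EDTA, 0.1% PEG-400, 0.1% Triton X-100.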

Sequence of human activated kallikrein enzyme (P03952 391-638 limits assumed): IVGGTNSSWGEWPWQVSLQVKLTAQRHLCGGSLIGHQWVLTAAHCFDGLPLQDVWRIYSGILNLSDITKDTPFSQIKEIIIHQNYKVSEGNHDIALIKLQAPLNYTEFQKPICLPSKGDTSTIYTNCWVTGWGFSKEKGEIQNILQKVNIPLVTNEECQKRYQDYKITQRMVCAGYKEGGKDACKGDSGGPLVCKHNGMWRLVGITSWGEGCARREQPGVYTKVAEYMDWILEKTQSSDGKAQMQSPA
Sequence of human activated kallikrein enzyme (P03952 20-390 partner limits assumed): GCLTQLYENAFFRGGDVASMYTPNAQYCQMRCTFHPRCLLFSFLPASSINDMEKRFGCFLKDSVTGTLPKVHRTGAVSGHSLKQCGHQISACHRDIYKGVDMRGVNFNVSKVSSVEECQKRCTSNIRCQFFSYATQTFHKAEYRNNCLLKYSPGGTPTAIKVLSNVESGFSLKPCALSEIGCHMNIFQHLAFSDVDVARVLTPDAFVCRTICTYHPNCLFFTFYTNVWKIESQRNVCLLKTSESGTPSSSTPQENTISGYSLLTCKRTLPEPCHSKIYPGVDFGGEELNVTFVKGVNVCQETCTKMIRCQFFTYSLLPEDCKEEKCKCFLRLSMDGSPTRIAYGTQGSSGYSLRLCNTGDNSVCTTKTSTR

EC50 | Compound
< 1 nM | CNc1nccc2c(C)c(CNC(=O)c3cnn(Cc4cn5cc(C6CC6)ccc5n4)c3)c(C)cc12 [Example 134, 1-((6-cyclopropylimidazo[1,2-a]pyridin-2-yl)methyl)-N-((5,7-dimethyl-1-(methylamino)isoquinolin-6-yl)methyl)-1H-pyrazole-4-carboxamide]
< 1 nM | Cc1cc2nc(Cn3cc(C(=O)NCc4c(C)cc5c(N)nccc5c4C)cn3)cn2cc1Br [Example 135, N-((1-amino-5,7-dimethylisoquinolin-6-yl)methyl)-1-((6-bromo-7-methylimidazo[1,2-a]pyridin-2-yl)methyl)-1H-pyrazole-4-carboxamide]
< 1 nM | Cc1cc2c(N)nccc2c(C)c1CNC(=O)c1cnn(Cc2cn3c(C)c(C)ccc3n2)c1 [Example 136, N-((1-amino-5,7-dimethylisoquinolin-6-yl)methyl)-1-((5,6-dimethylimidazo[1,2-a]pyridin-2-yl)methyl)-1H-pyrazole-4-carboxamide]
1 to 10 nM | Cc1cc2c(N)nccc2c(C)c1CNC(=O)c1cnn(Cc2cn3c(C4CC4)cccc3n2)c1 [Example 137, N-((1-amino-5,7-dimethylisoquinolin-6-yl)methyl)-1-((5-cyclopropylimidazo[1,2-a]pyridin-2-yl)methyl)-1H-pyrazole-4-carboxamide]
< 1 nM | Cc1cc2c(N)nccc2c(C)c1CNC(=O)c1cnn(Cc2cn3c(Cl)c(Br)ccc3n2)c1 [Example 138, N-((1-amino-5,7-dimethylisoquinolin-6-yl)methyl)-1-((6-bromo-5-chloroimidazo[1,2-a]pyridin-2-yl)methyl)-1H-pyrazole-4-carboxamide]
< 1 nM | Cc1cc2c(N)nccc2c(C)c1CNC(=O)c1cnn(Cc2cn3c(Br)cccc3n2)c1 [Example 139, N-((1-amino-5,7-dimethylisoquinolin-6-yl)methyl)-1-((5-bromoimidazo[1,2-a]pyridin-2-yl)methyl)-1H-pyrazole-4-carboxamide]
< 1 nM | CCc1cccc2nc(Cn3cc(C(=O)NCc4c(C)cc5c(N)nccc5c4C)cn3)cn12 [Example 140, N-((1-amino-5,7-dimethylisoquinolin-6-yl)methyl)-1-((5-ethylimidazo[1,2-a]pyridin-2-yl)methyl)-1H-pyrazole-4-carboxamide]
< 1 nM | CCc1c(Cl)ccc2nc(Cn3cc(C(=O)NCc4c(C)cc5c(N)nccc5c4C)cn3)cn12 [Example 141, N-((1-amino-5,7-dimethylisoquinolin-6-yl)methyl)-1-((6-chloro-5-ethylimidazo[1,2-a]pyridin-2-yl)methyl)-1H-pyrazole-4-carboxamide]
< 1 nM | Cc1cc2c(N)nccc2c(C)c1CNC(=O)c1cnn(Cc2cn3c(F)c(C4CC4)ccc3n2)c1 [Example 142, N-((1-amino-5,7-dimethylisoquinolin-6-yl)methyl)-1-((6-cyclopropyl-5-fluoroimidazo[1,2-a]pyridin-2-yl)methyl)-1H-pyrazole-4-carboxamide]
< 1 nM | Cc1cc2c(N)nccc2c(C)c1CNC(=O)c1cnn(Cc2cn3c(C#N)cccc3n2)c1 [Example 143, N-((1-amino-5,7-dimethylisoquinolin-6-yl)methyl)-1-((5-cyanoimidazo[1,2-a]pyridin-2-yl)methyl)-1H-pyrazole-4-carboxamide]
< 1 nM | COc1cccc2nc(Cn3cc(C(=O)NCc4c(C)cc5c(N)nccc5c4C)cn3)cn12 [Example 144, N-((1-amino-5,7-dimethylisoquinolin-6-yl)methyl)-1-((5-methoxyimidazo[1,2-a]pyridin-2-yl)methyl)-1H-pyrazole-4-carboxamide]
< 1 nM | Cc1cc2c(N)nccc2c(C)c1CNC(=O)c1cnn(Cc2cn3c(C)c(Br)ccc3n2)c1 [Example 145, N-((1-amino-5,7-dimethylisoquinolin-6-yl)methyl)-1-((6-bromo-5-methylimidazo[1,2-a]pyridin-2-yl)methyl)-1H-pyrazole-4-carboxamide]
< 1 nM | Cc1cc2nc(Cn3cc(C(=O)NCc4c(C)cc5c(N)nccc5c4C)cn3)cn2cc1C1CC1 [Example 146, N-((1-amino-5,7-dimethylisoquinolin-6-yl)methyl)-1-((6-cyclopropyl-7-methylimidazo[1,2-a]pyridin-2-yl)methyl)-1H-pyrazole-4-carboxamide]
< 1 nM | Cc1cc2c(N)nccc2c(C)c1CNC(=O)c1cnn(Cc2cn3cc(C4CC4)c(Cl)cc3n2)c1 [Example 147, N-((1-amino-5,7-dimethylisoquinolin-6-yl)methyl)-1-((7-chloro-6-cyclopropylimidazo[1,2-a]pyridin-2-yl)methyl)-1H-pyrazole-4-carboxamide]
< 1 nM | Cc1cc2c(N)nccc2c(C)c1CNC(=O)c1cnn(Cc2cn3c(Cl)c(C4CC4)ccc3n2)c1 [Example 148, N-((1-amino-5,7-dimethylisoquinolin-6-yl)methyl)-1-((5-chloro-6-cyclopropylimidazo[1,2-a]pyridin-2-yl)methyl)-1H-pyrazole-4-carboxamide]
< 1 nM | Cc1cc2c(N)nccc2c(C)c1CNC(=O)c1cnn(Cc2cn3cc(Br)c(Cl)cc3n2)c1 [Example 149, N-((1-amino-5,7-dimethylisoquinolin-6-yl)methyl)-1-((6-bromo-7-chloroimidazo[1,2-a]pyridin-2-yl)methyl)-1H-pyrazole-4-carboxamide]

EC50 | Compound
10 to 100 nM | Cc1cc2c(N)nccc2c(C)c1CNC(=O)c1cnn(Cc2ccc3ncccc3n2)c1 [Example 150, 1-((1,5-naphthyridin-2-yl)methyl)-N-((1-amino-5,7-dimethylisoquinolin-6-yl)methyl)-1H-pyrazole-4-carboxamide]
< 1 nM | Cc1cc2c(N)nccc2c(C)c1CNC(=O)c1cnn(Cc2ccc(CC(=O)N(C)C)c(Cl)c2)c1 [Example 151, N-((1-amino-5,7-dimethylisoquinolin-6-yl)methyl)-1-(3-chloro-4-(2-(dimethylamino)-2-oxoethyl)benzyl)-1H-pyrazole-4-carboxamide]
< 1 nM | Cc1cc2c(N)nccc2c(C)c1CNC(=O)c1cnn(Cc2ccc(CC(=O)N(C)C)c(C(F)(F)F)c2)c1 [Example 152, N-((1-amino-5,7-dimethylisoquinolin-6-yl)methyl)-1-(4-(2-(dimethylamino)-2-oxoethyl)-3-(trifluoromethyl)benzyl)-1H-pyrazole-4-carboxamide]
1 to 10 nM | Cc1ccc2ccc(Cn3cc(C(=O)NCc4c(C)cc5c(N)nccc5c4C)cn3)cc2c1 [Example 153, N-((1-amino-5,7-dimethylisoquinolin-6-yl)methyl)-1-((7-methylnaphthalen-2-yl)methyl)-1H-pyrazole-4-carboxamide]
100 to 1000 nM | Cc1cc2c(N)nccc2c(C)c1CNC(=O)c1cnn(CC(=O)Nc2ccccc2)c1 [Example 154, N-((1-amino-5,7-dimethylisoquinolin-6-yl)methyl)-1-(2-oxo-2-(phenylamino)ethyl)-1H-pyrazole-4-carboxamide]
1 to 10 nM | Cc1cc2c(N)nccc2c(C)c1CNC(=O)c1cnn(Cc2ccc3ccc(Br)cc3n2)c1 [Example 156, N-((1-amino-5,7-dimethylisoquinolin-6-yl)methyl)-1-((7-bromoquinolin-2-yl)methyl)-1H-pyrazole-4-carboxamide]
1 to 10 nM | Cc1cc2c(N)nccc2c(C)c1CNC(=O)c1cnn(Cc2ccc3cc(Cl)ccc3n2)c1 [Example 157, N-((1-amino-5,7-dimethylisoquinolin-6-yl)methyl)-1-((6-chloroquinolin-2-yl)methyl)-1H-pyrazole-4-carboxamide]
1 to 10 nM | Cc1cc2c(N)nccc2c(C)c1CNC(=O)c1cnn(Cc2ccc3cc(F)ccc3n2)c1 [Example 158, N-((1-amino-5,7-dimethylisoquinolin-6-yl)methyl)-1-((6-fluoroquinolin-2-yl)methyl)-1H-pyrazole-4-carboxamide]
10 to 100 nM | Cc1cc2c(N)nccc2c(C)c1CNC(=O)c1cnn(Cc2ccc3cccc(Br)c3n2)c1 [Example 159, N-((1-amino-5,7-dimethylisoquinolin-6-yl)methyl)-1-((8-bromoquinolin-2-yl)methyl)-1H-pyrazole-4-carboxamide]
100 to 1000 nM | Cc1cc2c(N)nccc2c(C)c1CNC(=O)c1cnn(Cc2ccccc2)c1 [Example 160, N-((1-amino-5,7-dimethylisoquinolin-6-yl)methyl)-1-benzyl-1H-pyrazole-4-carboxamide]
10 to 100 nM | COCc1c(C(=O)NCc2c(C)cc3c(N)nccc3c2C)cnn1Cc1cnc(N2CCCC2)nc1 [Example 161, N-((1-amino-5,7-dimethylisoquinolin-6-yl)methyl)-5-(methoxymethyl)-1-((2-(pyrrolidin-1-yl)pyrimidin-5-yl)methyl)-1H-pyrazole-4-carboxamide]
< 1 nM | COCc1nn(Cc2cnc(N3CCCC3)nc2)cc1C(=O)NCc1c(C)cc2c(N)nccc2c1C [Example 162, N-((1-amino-5,7-dimethylisoquinolin-6-yl)methyl)-3-(methoxymethyl)-1-((2-(pyrrolidin-1-y1)pyrimidin-5-yl)methyl)-1H-pyrazole-4-carboxamide]
1 to 10 nM | Cc1cc2c(N)nccc2c(C)c1CNC(=O)c1cnn(Cc2ccc3ncc(O)cc3c2)c1 [Example 164, N-((1-amino-5,7-dimethylisoquinolin-6-yl)methyl)-1-((3-hydroxyquinolin-6-yl)methyl)-1H-pyrazole-4-carboxamide]
< 1 nM | Cc1cc2c(N)nccc2c(C)c1CNC(=O)c1cnn(Cc2ccc(Cc3ccccn3)cc2)c1 [Example 165, N-((1-amino-5,7-dimethylisoquinolin-6-y1)methyl)-1-(4-(pyridin-2-ylmethyl)benzyl)-1H-pyrazole-4-carboxamide]
< 1 nM | Cc1cc2c(N)nccc2c(C)c1CNC(=O)c1cnn(Cc2ccc(Cc3nccs3)cc2)c1 [Example 166, N-((1-amino-5,7-dimethylisoquinolin-6-yl)methyl)-1-(4-(thiazol-2-ylmethyl)benzyl)-1H-pyrazole-4-carboxamide]
